Patent publication US9717727B2, “Methods of treating and preventing leukemia and other cancers of the blood and bone” (The Trustees of Columbia University in the City of New York, priority 2011, dated 2017)
“Also recorded” adds a separate entry of the source. Like-named read-outs stand apart in the source and are kept apart here.

Key:
serotonin = settings: six consecutive doses, cited from earlier work
EL4 cells = assay: Injection of EL4 cells pre-treated with LP-533401 or serotonin into syngeneic mice (Example 13); type: in vivo; settings: cells treated before injection; LP-533401 0.1 to 1-fold serum concentration, serotonin 25 to 100 μM
Protocol: (§1) EL4 cells and WEH-3B cells, as described in Example 2, were treated with either LP-533401 or serotonin LP-533401 treatments were performed at 0.1 to 1-fold the amount equivalent to the LP-533401 serum concentration in mice treated with this compound. Serotonin was given at concentrations ranging from 25 to 100 μM, doses at which it affects the proliferation of cells expressing serotonin receptors (Kode et al. (2012); Yadav et al. (2008) Serafeim et al. (2003)).
EL4 cells treated with LP-533401 or serotonin were then injected into syngeneic mice as described in Example 2 to monitor leukemia engraftment, as commonly described for evaluating potential direct effects of compounds on leukemia cells (Moellering et al. (2009)).

[1] = test system: myeloid or the lymphoblastic leukemia cells; assay: Serotonin treatment of leukemia cells, proliferation or survival; type: cell-based
Protocol: as §1

| SMILES | serotonin levels in the small intestine lowered (serotonin; 30 mg/kg twice per day) [%] | serotonin levels in the small intestine lowered (serotonin; 90 mg/kg twice per day) [%] | brain-derived serotonin (serotonin; 30 or 90 mg/kg twice per day) | leukemia outcome (burden and lethality) after injection of pre-treated EL4 cells (EL4 cells) | proliferation or survival of leukemia cells [1] |
| --- | --- | --- | --- | --- | --- |
| CCOC(=O)[C@@H](N)Cc1ccc(-c2cc(OC(c3ccc(-c4cccc(F)c4)cc3)C(F)(F)F)nc(N)n2)cc1 (some centres unmarked) [LP-615819] | 55 | 70 | unchanged |  |  |
| NCCc1c[nH]c2ccc(O)cc12 [serotonin, 5-hydroxytryptamine] |  |  |  | neither implantation of serotonin-treated leukemia cells affected leukemia progression; also recorded: neither of the two treatments altered leukemia outcome | no effect |
